The assay deals with T1, β-secretase (BACE) (Homo sapiens, UniProt P56817).
T1 construct: purchased Panvera
Kind of assay: BACE FS1 % Inhibition Assay. In kind it is biochemical. The essentials: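 Percent inhibition per compound concentration was referenced to vehicle-treated enzyme and no-enzyme wells. Enzyme at a 4 μg/mL working stock plus compound was mixed for 20 min at room temperature before the FS1 substrate (300 μg/mL working stock) was added for a 1 h room-temperature reaction.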

The text below walks through data of patent US8426429B2, “2-amino-quinazoline derivatives useful as inhibitors of β-secretase (BACE)” (Jansssen Pharmaceutica N.V., priority 2004, dated 2013).

T1 sequence (P56817 46-501): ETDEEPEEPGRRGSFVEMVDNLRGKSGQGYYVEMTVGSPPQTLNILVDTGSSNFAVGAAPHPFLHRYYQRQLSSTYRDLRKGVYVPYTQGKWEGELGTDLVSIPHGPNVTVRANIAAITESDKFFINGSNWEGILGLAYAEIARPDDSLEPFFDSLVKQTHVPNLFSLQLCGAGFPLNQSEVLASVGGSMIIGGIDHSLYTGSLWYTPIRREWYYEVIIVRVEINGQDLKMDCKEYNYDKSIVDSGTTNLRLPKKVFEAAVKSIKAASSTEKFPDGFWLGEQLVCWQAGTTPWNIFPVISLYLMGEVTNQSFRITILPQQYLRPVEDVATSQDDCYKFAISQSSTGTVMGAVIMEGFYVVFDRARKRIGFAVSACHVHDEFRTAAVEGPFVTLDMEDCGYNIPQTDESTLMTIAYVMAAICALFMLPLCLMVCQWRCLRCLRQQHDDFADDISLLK

In the case of `CC(C)(C)NS(=O)(=O)c1ccccc1-c1ccc2c(c1)CN(CCNC(=O)C1CCCCC1)C(N)=N2` [Compound 542], the “% Inhibition (FS)” value (0.3 μM test compound) is reported as less than 30%, the “% Inhibition (FS)” value (1 μM test compound) was less than 30% and the “% Inhibition (FS)” value (3 μM test compound) turned out to be 73%.
Consider `NC(=O)c1ccccc1-c1ccc2c(c1)CN(CCNC(=O)C1CCCCC1)C(N)=N2` [Compound 543], for which the “% Inhibition (FS)” value reads like this: (0.3 μM test compound) less than 30%; (1 μM test compound) less than 30%; (3 μM test compound) less than 30%.
As to `NC1=Nc2ccc(-c3ccccc3-c3ccccc3)cc2CN1CCNC(=O)C1CCCCC1` [Compound 544], the “% Inhibition (FS)” value is 32% (0.3 μM test compound), less than 30% (1 μM test compound) and 51% (3 μM test compound).
`CN(C(=O)c1cccc(CN2Cc3cc([S+]([O-])c4ccccc4)ccc3N=C2N)c1)C1CCCCC1` (stereo not drawn) [Compound 549]: the “% Inhibition (FS)” value is listed as less than 30% (0.3 μM test compound), 30% (1 μM test compound) and 71% (3 μM test compound).
With `NC1=Nc2ccc(Oc3ccccc3)cc2CN1C1CCCCN(C(=O)C23CC4CC(CC(C4)C2)C3)C1` (stereo not drawn) [Compound 550], the “% Inhibition (FS)” value is recorded as less than 30% (0.3 μM test compound), less than 30% (1 μM test compound) and 67% (3 μM test compound).
On to `NC1=Nc2ccc(Oc3ccccc3)cc2CN1C1CCCCN(C(=O)C2CCCCC2)C1` (stereo not drawn) [Compound 551], for which the “% Inhibition (FS)” value reads like this: (0.3 μM test compound) less than 30%; (1 μM test compound) less than 30%; (3 μM test compound) less than 30%.
`CCCC(CCC)C(=O)N1CCCCC(N2Cc3cc(Oc4ccccc4)ccc3N=C2N)C1` (stereo not drawn) [Compound 552]: the “% Inhibition (FS)” value runs as follows: (0.3 μM test compound) less than 30%; (1 μM test compound) less than 30%; (3 μM test compound) 36%.
As to `CC(C)[C@@H](CNC(=O)C12CC3CC(CC(C3)C1)C2)N1Cc2cc(Oc3ccccc3)ccc2N=C1N` [Compound 553], the “% Inhibition (FS)” value is, setting by setting: (0.3 μM test compound) less than 30%; (1 μM test compound) less than 30%; (3 μM test compound) 49%.
`CCCC(CNC(=O)C1CCCCC1)N1Cc2cc(Oc3ccccc3)ccc2N=C1N` (stereo not drawn) [Compound 554]: the “% Inhibition (FS)” value was less than 30% (0.3 μM test compound, 0.3 µM); less than 30% (1 μM test compound, 1 µM); 42% (3 μM test compound, 3 µM).
In the case of `CCCC(CNC(=O)C12CC3CC(CC(C3)C1)C2)N1Cc2cc(Oc3ccccc3)ccc2N=C1N` (stereo not drawn) [Compound 555], the “% Inhibition (FS)” value (0.3 μM test compound, 0.3 µM) is reported as less than 30%; the “% Inhibition (FS)” value (1 μM test compound, 1 µM) was less than 30%; the “% Inhibition (FS)” value (3 μM test compound, 3 µM) amounted to 46%.
`CN(C(=O)CCC(CO)N1Cc2cc(Oc3ccccc3)ccc2N=C1N)C1CCCCC1` (stereo not drawn) [Compound 557]: the “% Inhibition (FS)” value reads like this: (0.3 μM test compound) less than 30%; (1 μM test compound) less than 30%; (3 μM test compound) less than 30%.
As for `CN(C(=O)c1ncoc1C(Cc1ccccc1)N1Cc2cc(Oc3ccccc3)ccc2N=C1N)C1CCCCC1` (stereo not drawn) [Compound 559], the “% Inhibition (FS)” value (0.3 μM test compound) is on record as less than 30%, the “% Inhibition (FS)” value (1 μM test compound) is recorded as less than 30% and the “% Inhibition (FS)” value (3 μM test compound) was less than 30%.
Consider `CC(C)CC(=O)NC[C@@H](C(C)C)N1Cc2cc(Oc3ccccc3)ccc2N=C1N` [Compound 563], for which the “% Inhibition (FS)” value came to 101% (0.3 μM test compound), 119% (1 μM test compound) and 127% (3 μM test compound).
The like results for `CC(C)CCC(=O)NC[C@@H](C(C)C)N1Cc2cc(Oc3ccccc3)ccc2N=C1N` [Compound 564] were, in that order, 112%, 119% and 129%.
The like results for `N#Cc1cccc(C(=O)NCCN2Cc3cc(-c4cncnc4)ccc3N=C2N)c1` [Compound 567] were, in that order, less than 30%, less than 30% and less than 30%.
In the case of `CCCC=Cc1ccc2c(c1)CN(CCNC(=O)c1cccc(C#N)c1)C(N)=N2` [Compound 568], the “% Inhibition (FS)” value is less than 30% (0.3 μM test compound), less than 30% (1 μM test compound) and less than 30% (3 μM test compound).
Take `CCCC(=O)NCCN1Cc2cc(-c3cncnc3)ccc2N=C1N` [Compound 569]: the “% Inhibition (FS)” value by setting is: (0.3 μM test compound) less than 30%; (1 μM test compound) less than 30%; (3 μM test compound) less than 30%.
In the case of `CCCC(=O)NCCN1Cc2cc(-c3ccncc3)ccc2N=C1N` [Compound 570], the “% Inhibition (FS)” value (0.3 μM test compound) is less than 30%, the “% Inhibition (FS)” value (1 μM test compound) was less than 30% and the “% Inhibition (FS)” value (3 μM test compound) was less than 30%.
For `CCCC=Cc1ccc2c(c1)CN(CCNC(=O)CCC)C(N)=N2` [Compound 571], the “% Inhibition (FS)” value by setting is: (0.3 μM test compound) less than 30%; (1 μM test compound) less than 30%; (3 μM test compound) less than 30%.
Take `CC(C)(C)C(=O)NCCN1Cc2cc(-c3ccncc3)ccc2N=C1N` [Compound 573]: the “% Inhibition (FS)” value is listed as less than 30% (0.3 μM test compound), less than 30% (1 μM test compound) and less than 30% (3 μM test compound).
With `CCCC=Cc1ccc2c(c1)CN(CCNC(=O)C(C)(C)C)C(N)=N2` [Compound 574], the “% Inhibition (FS)” value runs as follows: (0.3 μM test compound) less than 30%; (1 μM test compound) less than 30%; (3 μM test compound) less than 30%.
For `NC1=Nc2ccc(-c3cncnc3)cc2CN1CCNC(=O)C1CCCCC1` [Compound 575], the “% Inhibition (FS)” value is on record as less than 30% (0.3 μM test compound), less than 30% (1 μM test compound) and less than 30% (3 μM test compound).
As to `NC1=Nc2ccc(-c3ccncc3)cc2CN1CCNC(=O)C1CCCCC1` [Compound 576], the “% Inhibition (FS)” value runs as follows: (0.3 μM test compound) less than 30%; (1 μM test compound) less than 30%; (3 μM test compound) less than 30%.
Consider `CCCC=Cc1ccc2c(c1)CN(CCNC(=O)C1CCCCC1)C(N)=N2` [Compound 577], for which the “% Inhibition (FS)” value is reported as less than 30% (0.3 μM test compound), less than 30% (1 μM test compound) and less than 30% (3 μM test compound).
As for `CCCC=Cc1ccc2c(c1)CN(CCNC(=O)CC1CCCC1)C(N)=N2` [Compound 580], the “% Inhibition (FS)” value was less than 30% (0.3 μM test compound), less than 30% (1 μM test compound) and less than 30% (3 μM test compound).
For the compound `CC(=O)c1cccc(-c2ccc3c(c2)CN(CCNC(=O)CC2CCCC2)C(N)=N3)c1` [Compound 582], the “% Inhibition (FS)” value is on record as less than 30% (0.3 μM test compound), less than 30% (1 μM test compound) and less than 30% (3 μM test compound).
For the compound `NC1=Nc2ccc(-c3cccc(C(F)(F)F)c3)cc2CN1CCNC(=O)CC1CCCC1` [Compound 584], the “% Inhibition (FS)” value is listed as less than 30% (0.3 μM test compound), less than 30% (1 μM test compound) and 56% (3 μM test compound).
Take `Cc1cc(C(=O)NCCN2Cc3cc(-c4ccccc4)ccc3N=C2N)c(C)o1` [Compound 586]: the “% Inhibition (FS)” value reads like this: (0.3 μM test compound) less than 30%; (1 μM test compound) less than 30%; (3 μM test compound) 59%.
`CCCC=Cc1ccc2c(c1)CN(CCNC(=O)c1cc(C)oc1C)C(N)=N2` [Compound 587]: the “% Inhibition (FS)” value runs as follows: (0.3 μM test compound) less than 30%; (1 μM test compound) less than 30%; (3 μM test compound) less than 30%.
Take `CC(=O)c1cccc(-c2ccc3c(c2)CN(CCNC(=O)c2cc(C)oc2C)C(N)=N3)c1` [Compound 588]: the “% Inhibition (FS)” value is less than 30% (0.3 μM test compound), less than 30% (1 μM test compound) and less than 30% (3 μM test compound).
Regarding `Cc1cc(C(=O)NCCN2Cc3cc(-c4cccc(CO)c4)ccc3N=C2N)c(C)o1` [Compound 589], the “% Inhibition (FS)” value is reported as less than 30% (0.3 μM test compound), less than 30% (1 μM test compound) and less than 30% (3 μM test compound).
Turning to `Cc1cc(C(=O)NCCN2Cc3cc(-c4cccc(C(F)(F)F)c4)ccc3N=C2N)c(C)o1` [Compound 590], the “% Inhibition (FS)” value by setting is: (0.3 μM test compound) less than 30%; (1 μM test compound) less than 30%; (3 μM test compound) less than 30%.
Take `CC(=O)Nc1ccc(C(=O)NCCN2Cc3cc(-c4ccccc4)ccc3N=C2N)cc1` [Compound 591]: the “% Inhibition (FS)” value is, setting by setting: (0.3 μM test compound) less than 30%; (1 μM test compound) less than 30%; (3 μM test compound) less than 30%.
Regarding `CCCC=Cc1ccc2c(c1)CN(CCNC(=O)c1ccc(NC(C)=O)cc1)C(N)=N2` [Compound 592], the “% Inhibition (FS)” value was less than 30% (0.3 μM test compound), less than 30% (1 μM test compound) and less than 30% (3 μM test compound).
Take `CC(=O)Nc1ccc(C(=O)NCCN2Cc3cc(-c4cccc(CO)c4)ccc3N=C2N)cc1` [Compound 593]: the “% Inhibition (FS)” value is less than 30% (0.3 μM test compound), less than 30% (1 μM test compound) and less than 30% (3 μM test compound).
For `CC(=O)Nc1ccc(C(=O)NCCN2Cc3cc(-c4cccc(C(F)(F)F)c4)ccc3N=C2N)cc1` [Compound 594], the “% Inhibition (FS)” value was less than 30% (0.3 μM test compound), less than 30% (1 μM test compound) and less than 30% (3 μM test compound).
Take `CCCC=Cc1ccc2c(c1)CN(CCNC(=O)Cc1ccccc1)C(N)=N2` [Compound 596]: the “% Inhibition (FS)” value runs as follows: (0.3 μM test compound) less than 30%; (1 μM test compound) less than 30%; (3 μM test compound) less than 30%.
`CC(=O)c1cccc(-c2ccc3c(c2)CN(CCNC(=O)Cc2ccccc2)C(N)=N3)c1` [Compound 598]: the “% Inhibition (FS)” value is, setting by setting: (0.3 μM test compound) less than 30%; (1 μM test compound) less than 30%; (3 μM test compound) 36%.
For `NC1=Nc2ccc(-c3cccc(CO)c3)cc2CN1CCNC(=O)Cc1ccccc1` [Compound 599], the “% Inhibition (FS)” value (0.3 μM test compound) is listed as less than 30%, the “% Inhibition (FS)” value (1 μM test compound) is given as less than 30% and the “% Inhibition (FS)” value (3 μM test compound) is listed as 65%.
For the compound `NC1=Nc2ccc(-c3cccc(C(F)(F)F)c3)cc2CN1CCNC(=O)Cc1ccccc1` [Compound 600], the “% Inhibition (FS)” value reads like this: (0.3 μM test compound) less than 30%; (1 μM test compound) less than 30%; (3 μM test compound) 41%.
Take `CCCC(CNC(=O)C1CCCCC1)N1Cc2cc(Oc3ccccc3)ccc2N=C1N` (stereo not drawn) [Compound 601]: the “% Inhibition (FS)” value runs as follows: (0.3 μM test compound, 0.3 µM) 105%; (1 μM test compound, 1 µM) 115%; (3 μM test compound, 3 µM) 121%.
